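96-well plates; 48 h exposure; 5 concentrations. Endpoints by linear interpolation between flanking doses. Not reached: highest tested concentration assigned. TGI: concentration producing complete growth inhibition.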
Key:
Test in all cases: growth of human tumour cells (NCI), 48 h
[1] = tested on: SF-295 CNS
[2] = tested on: A549 NSCLC
[3] = tested on: DMS 114 small cell lung
[4] = tested on: NCI-H522 lung
[5] = tested on: SW-620 colon
[6] = tested on: U251 CNS
[7] = tested on: TK-10 renal
[8] = tested on: SNB-78 CNS
[9] = tested on: KM20L2 colon
[10] = tested on: OVCAR-8 ovarian
[11] = tested on: SF-268 CNS
[12] = tested on: MALME-3M melanoma
[13] = tested on: NCI-H460 lung
[14] = tested on: UACC-257 melanoma
[15] = tested on: HOP-62 NSCLC
[16] = tested on: HT29 colon
[17] = tested on: ACHN renal
[18] = tested on: EKVX NSCLC
[19] = tested on: SK-MEL-2 melanoma
[20] = tested on: 786-0 renal
[21] = tested on: SN12C renal
[22] = tested on: COLO 205 colon
[23] = tested on: HOP-92 NSCLC
[24] = tested on: SK-MEL-28 melanoma
[25] = tested on: LXFL 529 NSCLC
[26] = tested on: HL-60(TB) leukemia
[27] = tested on: RXF 393 renal
[28] = tested on: M14 melanoma
[29] = tested on: SF-539 CNS
[30] = tested on: DMS 273 small cell lung
[31] = tested on: OVCAR-3 ovarian
[32] = tested on: HCC-2998 colon
[33] = tested on: OVCAR-4 ovarian
[34] = tested on: LOX IMVI melanoma
[35] = tested on: SNB-75 CNS
[36] = tested on: SR leukemia
[37] = tested on: NCI-H226 lung
[38] = tested on: SNB-19 CNS
[39] = tested on: OVCAR-5 ovarian
[40] = tested on: NCI-H23 lung
[41] = tested on: CAKI-1 renal
[42] = tested on: UO-31 renal
[43] = tested on: KM12 colon
[44] = tested on: CCRF-CEM leukemia
[45] = tested on: K-562 leukemia
[46] = tested on: IGROV1 ovarian
[47] = tested on: HCT-116 colon
[48] = tested on: SK-OV-3 ovarian
[49] = tested on: MOLT-4 leukemia
[50] = tested on: M19-MEL melanoma
[51] = tested on: RPMI-8226 leukemia
[52] = tested on: UACC-62 melanoma
[53] = tested on: SK-MEL-5 melanoma
[54] = tested on: BT-549 breast
[55] = tested on: T-47D breast
[56] = tested on: NCI/ADR-RES ovarian
[57] = tested on: HCT-15 colon
[58] = tested on: MCF7 breast
[59] = tested on: MDA-N
[60] = tested on: DU-145 prostate
[61] = tested on: MDA-MB-435
[62] = tested on: MDA-MB-231 breast
[63] = tested on: A498 renal
[64] = tested on: PC-3 prostate
[65] = tested on: HS 578T breast

c1ccc2nc(-c3ccc4c(c3)OCO4)ccc2c1
TGI [1]: > 100 µM | TGI [2]: > 100 µM | TGI [3]: 67.5 µM | TGI [4]: > 100 µM | TGI [5]: > 100 µM | TGI [6]: > 100 µM | TGI [7]: > 100 µM | TGI [8]: > 100 µM | TGI [9]: > 100 µM | TGI [10]: > 100 µM | TGI [11]: > 100 µM | TGI [12]: 68 µM | TGI [13]: > 100 µM | TGI [14]: 48.7 µM | TGI [15]: 79.5 µM | TGI [16]: 79.7 µM | TGI [17]: > 100 µM | TGI [18]: > 100 µM | TGI [19]: > 100 µM | TGI [20]: > 100 µM | TGI [21]: > 100 µM | TGI [22]: > 100 µM | TGI [23]: 19 µM | TGI [24]: > 100 µM | TGI [25]: > 100 µM | TGI [26]: > 100 µM | TGI [27]: 58.9 µM | TGI [28]: > 100 µM | TGI [29]: > 100 µM | TGI [30]: 62.8 µM | TGI [31]: 71.1 µM | TGI [32]: > 100 µM | TGI [33]: > 100 µM | TGI [34]: 82.7 µM | TGI [35]: > 100 µM | TGI [36]: 43.9 µM | TGI [37]: 97.6 µM | TGI [38]: > 100 µM | TGI [39]: > 100 µM | TGI [40]: > 100 µM | TGI [41]: > 100 µM | TGI [42]: 93.3 µM | TGI [43]: > 100 µM

Cc1c(-c2c(C)c(=O)c3c(C(C)C)c(=O)c(=O)c(C=O)c-3c2=O)c(O)c2c(C=O)c(O)c(O)c(C(C)C)c2c1O
TGI [1]: 3.94 µM | TGI [3]: 5.82 µM | TGI [4]: 15.7 µM | TGI [6]: 11.3 µM | TGI [44]: 5.07 µM | TGI [45]: 10.7 µM | TGI [8]: 6.78 µM | TGI [11]: 18.8 µM | TGI [12]: 15.2 µM | TGI [13]: 11.8 µM | TGI [14]: 13.6 µM | TGI [46]: 11.3 µM | TGI [15]: 14.3 µM | TGI [16]: 4.87 µM | TGI [17]: 10.3 µM | TGI [47]: 7.81 µM | TGI [19]: 3.68 µM | TGI [48]: 13 µM | TGI [49]: 11.3 µM | TGI [22]: 11.8 µM | TGI [23]: 7.49 µM | TGI [24]: 16.4 µM | TGI [25]: 12.8 µM | TGI [26]: 11.1 µM | TGI [27]: 6.99 µM | TGI [28]: 4.24 µM | TGI [29]: 8.87 µM | TGI [31]: 7.02 µM | TGI [33]: 12 µM | TGI [35]: 26.2 µM | TGI [36]: 17.1 µM | TGI [38]: 17.6 µM | TGI [39]: 7.82 µM | TGI [50]: 15.4 µM | TGI [51]: 9.9 µM | TGI [40]: 10.5 µM | TGI [42]: 5.5 µM | TGI [43]: 4.9 µM | TGI [52]: 8.14 µM

CCCC(=O)OC[n+]1ccc2c(C)c3[nH]c4ccc(OC)cc4c3c(C)c2c1
TGI [3]: 3.78 µM | TGI [6]: > 100 µM | TGI [7]: 20.1 µM | TGI [11]: > 100 µM | TGI [12]: > 100 µM | TGI [14]: > 100 µM | TGI [15]: 3.08 µM | TGI [17]: 7.47 µM | TGI [19]: 7.12 µM | TGI [48]: 14.9 µM | TGI [49]: 0.322 µM | TGI [26]: 1.82 µM | TGI [36]: 2.89 µM | TGI [39]: 2.31 µM | TGI [51]: 0.54 µM | TGI [41]: 13.6 µM | TGI [42]: 6.38 µM | TGI [43]: 1.77 µM

Cc1cc(C)c([S@@](=O)O[C@@H]2[C@H]3OC(C)(C)O[C@H]3O[C@@H]2[C@H]2COC(C)(C)O2)c(C)c1
TGI [1]: > 100 µM | TGI [2]: > 100 µM | TGI [4]: 24.1 µM | TGI [5]: 49.3 µM | TGI [53]: 97.9 µM | TGI [6]: 44.1 µM | TGI [7]: 59.7 µM | TGI [54]: 30.6 µM | TGI [44]: 88.7 µM | TGI [55]: > 100 µM | TGI [45]: 76.8 µM | TGI [56]: 57 µM | TGI [10]: 37.6 µM | TGI [11]: 95.3 µM | TGI [12]: 80.1 µM | TGI [13]: 62.9 µM | TGI [14]: 46.2 µM | TGI [46]: 18 µM | TGI [15]: 51.3 µM | TGI [16]: 85.7 µM | TGI [17]: 33.5 µM | TGI [18]: 61.2 µM | TGI [47]: 57 µM | TGI [19]: 86.1 µM | TGI [20]: 64.6 µM | TGI [21]: 42.7 µM | TGI [57]: > 100 µM | TGI [48]: > 100 µM | TGI [49]: 43.3 µM | TGI [22]: 38.9 µM | TGI [23]: 38.4 µM | TGI [58]: 57.9 µM | TGI [24]: 90.5 µM | TGI [26]: 28.7 µM | TGI [27]: 36.3 µM | TGI [28]: 59.4 µM | TGI [29]: 39.5 µM | TGI [59]: 65.4 µM | TGI [31]: 41.6 µM | TGI [60]: 89.2 µM | TGI [61]: 40.2 µM | TGI [32]: 41.7 µM | TGI [33]: 42.8 µM | TGI [34]: 30.1 µM | TGI [35]: 59.6 µM | TGI [36]: 49 µM | TGI [62]: 60.5 µM | TGI [37]: 53.2 µM | TGI [38]: > 100 µM | TGI [39]: 83.9 µM | TGI [51]: 50.5 µM | TGI [63]: 47.2 µM | TGI [64]: 41.2 µM | TGI [40]: 89.5 µM | TGI [41]: 9.11 µM | TGI [42]: 33.2 µM | TGI [43]: 40.2 µM | TGI [52]: 51.6 µM | TGI [65]: > 100 µM

From PubChem BioAssay (NCI)
